Measurements reported in US6642256B2, “Piperidine derivatives as subtype selective N-Methyl-D-Aspartate antagonists” (Warner-Lambert Company LLC, priority 2000, dated 2003).

Molecular target: T1, NR1A/NR2B NMDA receptor subtype (Rattus norvegicus, UniProt P35439+Q00960)
T1 construct: buffy coat membrane fraction was prepared from frozen adult rat forebrains; tissue Zivic-Miller Laboratories, Inc; host or cells: adult rat forebrain membranes
Experiment: [3H]Ifenprodil binding assay (IFPNR), rat forebrain membranes
Settings: Table 1, 4 nM [3H]-ifenprodil, read-out: IFPNR (IC50 μM)
Protocol: b. [^3H]Ifenprodil Binding Assay (IFPNR) Protocol:
Ifenprodil, [phenyl-^3H]-(specific activity, 66.2 Ci/mmol) was purchased from Dupont NEN Research Products (Boston, Mass.). Ifenprodil tartrate was purchased from Research Biochemicals International (Natick, Mass.). HEPES, glutamate and glycine were purchased from Sigma Chemical Co. (St. Louis, Mo.).
All buffers and reagents used in assay incubations or to dissolve drugs were prepared using water purified through a Milli-Q reverse osmosis system (Millipore Corp., Bedford, Mass.) and treated with UV emissions. Prior to use in the assays buffers were further filtered through a sterile Coming filtration unit (Coming Glass Works, Coming, N.Y.) containing a 0.2 micron filter. Buffer used to rinse the membranes on the assay filters was prepared with purified water, but was not refiltered and was stored no longer than 5 days. Stock solutions of the drugs (usually 10 mM) were dissolved in 20 mM HEPES-KOH buffer pH 7.4 (assay buffer) with the addition of 1 to 5 μL of glacial AcOH, if needed to keep them in solution. Eliprodil was used as the reference NMDA antagonist. A stock solution of eliprodil was prepared, and was buffered with the addition of 10% DMSO. All subsequent dilutions from the stock solution were made in buffer.
An extensively washed buffy coat membrane fraction was prepared from frozen adult rat forebrains (Zivic-Miller Laboratories, Inc., Zelienople, Pa.) as described by Coughenour L. L.; Cordon, J. J., J. Pharmacol. Exp. Ther., 1997;280:584-592, and stored at −80° C. On the day of the assay, pellets of the frozen membrane fractions were resuspended in 35 mL of assay buffer at pH 7.4 using a POLYTRON (Kinematica A. G. Company, Littau, Switzerland) mixer at setting 6. After incubation at 37° C. for 30 minutes in a shaking water bath, the homogenate was centrifuged 40,000×g for 10 minutes at 4° C. The pellets were resuspended in fresh buffer and centrifuged 3 more times before final suspension for use in the assay.
(iii) [^3H]Ifenprodil Binding protocol:
Triplicate incubations were carried out in a volume of 0.5 mL in 1.3 mL polypropylene tubes (Marsh Biomedical Products Inc, Rochester, N.Y.) for 2 hours at room temperature. Incubations contained invention compounds, membranes (100-200 μg protein) and 4 nM [^3H]-ifenprodil in 20 mM HEPES-KOH buffer, pH 7.4 (assay buffer). Assays were started by addition of the membranes. Bound radioligand was separated by filtration under reduced pressure using a TOMTEC Mach II, 96-well cell harvester (Tomtec Inc, Orange, Conn.). Filtration was through Whatman GF/B glass fiber filters (Whatman Ltd., Maidstone, England), which had been soaked for at least 15 minutes in 0.3% polyethylenimine and allowed to air dry. The filters were rinsed with 3 mL of ice cold assay buffer within 6 seconds. Air was allowed to pass through the filters for an additional 10 seconds to remove residual moisture. The filter mat was supported on a cold (−20° C.) TEFLON (E. I. Du Pont de Nemours and Company, Wilmington, Del.) coated support, and filters from individual wells were separated and placed in Mini Poly-Q vials (Becklman Instruments Inc, Fullerton, Calif.) and filled with 4 mL of scintillation cocktail (Beckman Ready Protein^+). Radioactivity retained on the filter was determined by liquid scintillation spectrophotometry. Nonspecific binding was defined as the binding in the presence of […] ifenprodil. Ninety percent of the total binding of ifenprodil was specific binding at the NR1A/NR2B NMDA receptor subtype active site (as opposed to binding at a remote site).
Binding curves were statistically analyzed for a best 1- or 2-site competition fit using GRAPHPAD PRISM software (GraphPad Software Inc, San Diego, Calif.), a computer program used to analyze and graph scientific data. The normalized data was fitted by nonweighted nonlinear regression to either [formula]
Control data was entered as 100%, and no parameters were constrained. […]

T1 sequence (Q00960 27-1482, other chains not shown): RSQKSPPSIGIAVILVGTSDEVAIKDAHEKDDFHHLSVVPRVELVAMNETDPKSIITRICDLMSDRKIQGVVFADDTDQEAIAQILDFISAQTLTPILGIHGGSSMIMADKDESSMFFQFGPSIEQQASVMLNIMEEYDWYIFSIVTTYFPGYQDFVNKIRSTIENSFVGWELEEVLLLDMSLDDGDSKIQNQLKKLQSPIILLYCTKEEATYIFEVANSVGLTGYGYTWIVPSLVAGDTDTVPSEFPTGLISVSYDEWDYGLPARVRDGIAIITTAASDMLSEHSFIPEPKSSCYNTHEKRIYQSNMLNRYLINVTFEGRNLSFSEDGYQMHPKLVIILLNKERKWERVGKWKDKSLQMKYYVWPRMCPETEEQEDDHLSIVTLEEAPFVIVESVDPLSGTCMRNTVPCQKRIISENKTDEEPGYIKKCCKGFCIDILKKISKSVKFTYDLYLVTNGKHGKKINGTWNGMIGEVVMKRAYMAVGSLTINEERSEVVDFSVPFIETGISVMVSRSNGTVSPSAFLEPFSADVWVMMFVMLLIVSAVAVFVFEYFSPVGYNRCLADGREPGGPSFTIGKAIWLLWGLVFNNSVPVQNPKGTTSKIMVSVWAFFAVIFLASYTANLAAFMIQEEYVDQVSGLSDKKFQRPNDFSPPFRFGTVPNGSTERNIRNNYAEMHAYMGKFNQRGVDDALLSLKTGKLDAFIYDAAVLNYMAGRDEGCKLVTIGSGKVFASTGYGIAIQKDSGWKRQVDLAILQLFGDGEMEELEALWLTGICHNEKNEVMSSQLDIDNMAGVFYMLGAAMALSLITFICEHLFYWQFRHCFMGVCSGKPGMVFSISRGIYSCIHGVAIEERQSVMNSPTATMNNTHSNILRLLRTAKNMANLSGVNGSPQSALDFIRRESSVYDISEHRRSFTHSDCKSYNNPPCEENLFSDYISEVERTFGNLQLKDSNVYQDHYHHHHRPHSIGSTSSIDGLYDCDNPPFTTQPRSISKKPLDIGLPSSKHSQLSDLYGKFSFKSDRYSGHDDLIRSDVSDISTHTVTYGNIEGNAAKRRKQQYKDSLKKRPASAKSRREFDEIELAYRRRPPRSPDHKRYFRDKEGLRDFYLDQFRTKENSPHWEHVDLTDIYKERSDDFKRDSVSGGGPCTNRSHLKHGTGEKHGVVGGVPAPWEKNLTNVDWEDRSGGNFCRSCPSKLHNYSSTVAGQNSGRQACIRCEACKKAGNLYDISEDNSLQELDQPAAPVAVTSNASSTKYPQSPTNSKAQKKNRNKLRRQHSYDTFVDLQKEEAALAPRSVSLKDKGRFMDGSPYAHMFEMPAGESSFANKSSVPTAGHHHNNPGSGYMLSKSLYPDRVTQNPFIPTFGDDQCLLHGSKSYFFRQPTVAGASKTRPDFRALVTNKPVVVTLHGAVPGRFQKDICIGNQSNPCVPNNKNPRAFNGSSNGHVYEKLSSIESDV

O=c1[nH]c2ccc(C3=NOC(CN4CCC(Cc5ccc(F)cc5)CC4)C3)cc2o1 (single isomer, unassigned; (-)) [Example 4b, (−)-6-{5-[4-(4-Fluorobenzyl)piperidin-1-ylmethyl]4,5-dihydroisoxazol-3-yl}-3H-benzoxazol-2-one]
IC50: 0.28 µM

O=c1[nH]c2ccc(C3=NOC(CN4CCC(Cc5ccccc5)CC4)C3)cc2o1 (racemic) [Example 1, 6-[5-(4-Benzylpiperidin-1-ylmethyl)-4,5-dihydroisoxazol-3-yl]-3H-benzoxazol-2-one]
IC50: 0.033 µM
